IC50 data for 15 compounds are collected here from ChEMBL document CHEMBL5726776, “3,5-diamino-6-chloro-N-(N-(4-phenylbutyl)carbamimidoyl) pyrazine-2-carboxamide compounds” (2019).

The nature of the experiment: In Vitro Measure of Sodium Channel Blocking Activity and Reversibility: One assay used to assess mechanism of action and/or potency of the compounds of the present invention involves the determination of lumenal drug inhibition of airway epithelial sodium currents measured under short circuit current (ISC) using airway epithelial monolayers mounted in Using chambers. This assay is described in detail in Hirsh, A. J., Zhang, J., Zamurs, A., et al. Pharmacological properties of N-(3,5-diamino-6-chloropyrazine-2-carbonyl)-N′-4-[4-(2,3-dihydroxypropoxy)phenyl]butyl-guanidine methanesulfonate (552-02), a novel epithelial sodium channel blocker with potential clinical efficacy for CF lung disease. J. Pharmacol. Exp. Ther. 2008; 325(1): 77-88. Cells obtained from freshly excised human, dog, sheep or rodent airways are seeded onto porous 0.4 micron Snapwell™ Inserts (CoStar), cultured at air-liquid interface (ALI) conditions in hormonally defined media, and assayed for sodium transport activity (ISC) while bathed in Krebs Bicarbonate Ringer (KBR) in Using chambers. All test drug additions are to the lumenal bath with half-log dose addition protocols (from 1×10−11 M to 3×10−5 M), and the cumulative change in ISC (inhibition) recorded. All drugs are prepared in dimethyl sulfoxide as stock solutions at a concentration of 1×10−2 M and stored at −20° C. […] After the maximal concentration ([…]) is administered, the lumenal bath is exchanged three times with fresh drug-free KBR solution, and the resultant ISC measured after each wash for approximately 5 minutes in duration. Reversibility is defined as the percent return to the baseline value for sodium current after the third wash. All data from the voltage clamps are collected via a computer interface and analyzed off-line.Dose-effect relationships for all compounds are considered and analyzed by the Prism 3.0 program.
Consider `N=C(NCCCCc1ccc(CC[C@H](NCCCN(C[C@H](O)[C@@H](O)[C@H](O)[C@H](O)CO)C[C@H](O)[C@@H](O)[C@H](O)[C@H](O)CO)C(N)=O)c2c1CCCC2)NC(=O)c1nc(Cl)c(N)nc1N`, for which the IC50 came out at 7.3 nM.

In turn, `N=C(NCCCCc1ccc(CC[C@H](NCCCN(C[C@H](O)[C@@H](O)[C@H](O)[C@H](O)CO)C[C@H](O)[C@@H](O)[C@H](O)[C@H](O)CO)C(N)=O)cc1)NC(=O)c1nc(Cl)c(N)nc1N` registered a half-maximal inhibitory concentration (IC50) of 10.6 nM.

For `CCCCCCN(CCCN[C@@H](CCc1ccc(CCCCNC(=N)NC(=O)c2nc(Cl)c(N)nc2N)cc1)C(N)=O)C[C@H](O)[C@@H](O)[C@H](O)[C@H](O)CO`, the half-inhibitory concentration (IC50) was determined as 2.6 nM.

As for `N=C(NCCCCc1ccc2cc(CC[C@H](NCCCN(C[C@H](O)[C@@H](O)[C@H](O)[C@H](O)CO)C[C@H](O)[C@@H](O)[C@H](O)[C@H](O)CO)C(N)=O)ccc2c1)NC(=O)c1nc(Cl)c(N)nc1N`, the concentration for half-maximal inhibition (IC50) amounted to 12.5 nM.

The compound `N=C(NCCCCc1ccc(C[C@H](NCCCN(C[C@H](O)[C@@H](O)[C@H](O)[C@H](O)CO)C[C@H](O)[C@@H](O)[C@H](O)[C@H](O)CO)C(N)=O)cc1)NC(=O)c1nc(Cl)c(N)nc1N` yielded a half-inhibitory concentration (IC50) of 35.6 nM.

`CCCCCCN(CCCN[C@@H](Cc1ccc(CCCCNC(=N)NC(=O)c2nc(Cl)c(N)nc2N)cc1)C(N)=O)C[C@H](O)[C@@H](O)[C@H](O)[C@H](O)CO` yielded a half-maximal inhibitory concentration (IC50) of 2.9 nM.

Consider `N=C(NCCCCc1ccc(C[C@H](NCCCN(C[C@H](O)[C@@H](O)[C@H](O)[C@H](O)CO)C[C@H](O)[C@@H](O)[C@H](O)[C@H](O)CO)C(N)=O)c2c1CCCC2)NC(=O)c1nc(Cl)c(N)nc1N`, for which it took 5.5 nM to reach half-maximal inhibition (IC50).

Regarding `CCCCCCN(CCCN[C@@H](CCc1ccc(CCCCNC(=N)NC(=O)c2nc(Cl)c(N)nc2N)c2ccccc12)C(N)=O)C[C@H](O)[C@@H](O)[C@H](O)[C@H](O)CO`, it took 14.3 nM to reach half-maximal inhibition (IC50).

In turn, `CCCCCCN(CCCN[C@@H](Cc1ccc(CCCCNC(=N)NC(=O)c2nc(Cl)c(N)nc2N)c2ccccc12)C(N)=O)C[C@H](O)[C@@H](O)[C@H](O)[C@H](O)CO` registered an IC50 of 8.8 nM.

`CCCCCCN(CCCN[C@@H](Cc1ccc(CCCCNC(=N)NC(=O)c2nc(Cl)c(N)nc2N)c2c1CCCC2)C(N)=O)C[C@H](O)[C@@H](O)[C@H](O)[C@H](O)CO` registered an IC50 of 8.4 nM.

As for `CCCCCCN(CCCN[C@@H](CCc1ccc2cc(CCCCNC(=N)NC(=O)c3nc(Cl)c(N)nc3N)ccc2c1)C(N)=O)C[C@H](O)[C@@H](O)[C@H](O)[C@H](O)CO`, it took 6 nM to reach half-maximal inhibition (IC50).

`CCCCCCN(CCCN[C@@H](Cc1ccc2cc(CCCCNC(=N)NC(=O)c3nc(Cl)c(N)nc3N)ccc2c1)C(N)=O)C[C@H](O)[C@@H](O)[C@H](O)[C@H](O)CO` registered an IC50 of 11.3 nM. This IC50 is about 1.9-fold higher than that of the compound before.

`N=C(NCCCCc1ccc(CC[C@H](NCCCN(C[C@H](O)[C@@H](O)[C@H](O)[C@H](O)CO)C[C@H](O)[C@@H](O)[C@H](O)[C@H](O)CO)C(N)=O)c2ccccc12)NC(=O)c1nc(Cl)c(N)nc1N` displayed a half-inhibitory concentration (IC50) of 24 nM. This IC50 lies about 2.1-fold higher than the previous one.

In turn, `N=C(NCCCCc1ccc2cc(C[C@H](NCCCN(C[C@H](O)[C@@H](O)[C@H](O)[C@H](O)CO)C[C@H](O)[C@@H](O)[C@H](O)[C@H](O)CO)C(N)=O)ccc2c1)NC(=O)c1nc(Cl)c(N)nc1N` displayed an IC50 of 27.4 nM. This IC50 and that of the compound before are within 1.5-fold of each other.

Compound `N=C(NCCCCc1ccc(C[C@H](NCCCN(C[C@H](O)[C@@H](O)[C@H](O)[C@H](O)CO)C[C@H](O)[C@@H](O)[C@H](O)[C@H](O)CO)C(N)=O)c2ccccc12)NC(=O)c1nc(Cl)c(N)nc1N` had an IC50 of 40.8 nM. This IC50 and that of the compound before are within 1.5-fold of each other.

The term IC50 denotes the point on the concentration scale where inhibition reaches its midpoint. Low values mean greater potency, high ones weaker potency.
